Values of other authors, collected in patent US9393230B2, “Pharmaceutical composition on the basis of phyto-nutrients with increased bioavailability, having anti-tumor activity, and method for producing said composition (alternatives)” (Nordic Labs Limited, priority 2012, dated 2016).

Q: For `O=C(O[C@@H]1Cc2c(O)cc(O)cc2O[C@@H]1c1cc(O)c(O)c(O)c1)c1cc(O)c(O)c(O)c1` [epigallo-3-catechin, epigallocatechol-3-gallate], which solubility in water is on record?
A: water-soluble
